# Laboratory results: US20130323776A1, “CARRIER PEPTIDE FRAGMENT AND USE THEREOF” (Toagosei Co. Ltd., priority 2009, published 2013)
# Ends that are not written are not given here. * marks the point of attachment. FITC = O=C1OC2(c3ccc(O)cc3Oc3cc(O)ccc32)c2ccc(NC(=S)*)cc21; Acp = not defined here
# How the values were obtained:
# [1] = tested on: Human neonate foreskin fibroblasts (ATCC Catalogue No. CRL-2097); test: Evaluation of cell membrane permeability function, confocal laser scanning microscopy of fluorescently labeled peptide; format: cell-based; details: 1 μM peptide, 1 or 4 hours culture; for penetration of the cell membrane from outside the cell and transfer into the cytoplasm: methanol fixed
# Method: Human neonate foreskin fibroblasts (ATCC Catalogue No. CRL-2097) were used as the eukaryotic cells, and the cell membrane permeability capability of the samples (constructs for transferring a foreign substance) obtained in Example 1 above was investigated.
# More specifically, the abovementioned fibroblasts were cultured in a liquid mixture of 90% Eagle MEM culture medium (containing 0.1% nonessential amino acids, 2 mM L-glutamine, 1 mM sodium pyruvate, and 1.5 g/L sodium hydrogen carbonate) and 10% serum (FBS) as the culture medium.
# The cultured cells were trypsinized for 1 min at 37° C. with a 0.25% trypsin solution. After the abovementioned treatment, the trypsin was deactivated with FBS-containing medium, and a cell suspension (test sample for foreign substance transfer) was prepared by adjusting the cell concentration to approximately 5×10^4 cells/mL with the culture medium.
# Next, 0.5 mL of the abovementioned cell suspension was placed in a designated cell culturing container (culture slide with a surface coating of 0.1% gelatin), and the cells were incubated overnight at 37° C. in a 5% CO2 atmosphere. After incubation the medium was replaced with fresh culture medium, and the 1 mM sample solutions of each of the samples prepared in abovementioned Example 1 were added to a cell culture container so that the final sample concentration (peptide concentration) would be 1 μM. In this case 0.5 μL of sample solution was added to the container. Then the samples were incubated at 37° C. for either 1 or 4 hours in a 5% CO2 atmosphere.
# The cells after 1 hour of culture and the cells after 4 hours of culture were each rinsed in PBS and fixed with methanol (on ice for 10 min).
# Next the methanol-fixed samples (cells) were mounted using Prolong® Gold Antifade Reagent (Invitrogen) that contains the nuclear stain DAPI (4′,6-diamidino-2-phenylindole). Then the localization within the cells of the peptide bonded to the fluorescent dye (i.e., fluorescently labeled peptide) in each test sample (i.e., the abovementioned mounted test samples after methanol fixation) was investigated using a confocal scanning laser microscope. Part of the results are presented herein as micrographs.
# [2] = tested on: human iPS cells (cell line 201B2-082008KU); test: Evaluation of cell membrane permeability function in iPS cells, confocal laser scanning microscopy of fluorescently labeled peptide; format: cell-based; details: 1 μM peptide, 1 or 4 hours culture; for penetration of the cell membrane from outside the cell and transfer into the cytoplasm of iPS cells: human iPS cells on MEF feeder cells, methanol fixed; for foreign substance transfer efficiency toward stem cells such as iPS cells: human iPS cells
# Description: The target cells for transferring the foreign substance were changed from human neonate foreskin fibroblasts to human iPS cells (human induced pluripotent stem cells), and the cell membrane permeability capability of the two samples (constructs for transferring a foreign substance) obtained in Example 1 above was investigated. It should also be noted that the iPS cells (cell line 201B2-082008KU) and the mouse embryonic fibroblast feeder cells (cell line SNL 76/7, hereinafter “MEF”) used in this example were provided by the Yamanaka Research Laboratory of the Institute for Frontier Medical Sciences, Kyoto University (professor Shinya Yamanaka).
# First the obtained MEF were inactivated by a mitomycin C treatment (3 hours) and then trypsinised in a 0.25% trypsin solution containing 1 mM EDTA. After the above treatment, the trypsin was deactivated with culture medium containing FBS, and the MEF were adjusted to a suitable cell density using D-MEM medium (Dulbecco's Modified Eagle Medium: Gibco) containing MEF culture medium (7% FBS: Gibco), 2 mM L-glutamine (Gibco), 50 units/mL penicillin, and 50 μg/mL streptomycin (Gibco), and the abovementioned MEF were seeded onto a culture container (in the form of a culture slide or plate) with a surface coating of 0.1% gelatin. In this case, the MEF were seeded so that the cell density would be approximately 1.25×10^5 cells/mL. Next, the abovementioned cell culture containers were incubated overnight at 37° C. in a 5% CO2 atmosphere.
# Thereafter, the feeder cells were prepared by removing the MEF culture medium and rinsing with PBS.
# Separately, CTK solution (0.25% trypsin solution containing 0.1 mg/mL collagenase IV (Gibco), 1 mM calcium chloride, and 20% KSR (KnockOut® Serum Replacement)) was added to the obtained iPS cell line, the MEF were peeled therefrom, and the cells were rinsed with PBS.
# Next, 1 mL hESC culture medium (i.e., human ES cell medium, in this case, DMEM/F12 culture medium (Gibco) containing 20% KSR (Gibco), 2 mM L-glutamine (Gibco), 0.1% nonessential amino acids (Gibco), 0.1 mM 2-mercaptoethanol (Gibco), 50 units/mL penicillin, and 50 μg/mL streptomycin (Invitrogen, 4 ng/mL bFGF (basic fibroblast growth factor)) was added, the iPS cells were peeled off using a cell scraper, and the colony was broken apart by gentle pipetting.
# A suspension of iPS cells obtained in this manner was seeded onto the feeder cells in the culture containers that had been prepared as described above. Then, the above-mentioned hESC medium was added, and the cell culture containers were incubated overnight at 37° C. in a 5% CO2 atmosphere.
# After incubation overnight, the culture medium was removed from the culture containers, and the abovementioned hESC medium to which one of the 1 mM sample solutions prepared in abovementioned. Example 1 had been added to make a final sample concentration (pipetted concentration) of 1 μM was added to the culture containers. Then the samples were incubated at 37° C. for either 1 or 4 hours in a 5% CO2 atmosphere.
# The cells after 1 hour of culture and cells after 4 hours of culture were each rinsed in PBS (phosphate buffered saline) and fixed with methanol (on ice for 10 min).
# Next, the same treatment as in Example 2 was performed, and the localization within the iPS cells of the peptide that was bonded to the fluorescent dye (i.e., fluorescently labeled) was investigated using a confocal scanning laser microscope. Part of the results are presented herein as micrographs.
Substance,penetration of the cell membrane from outside the cell and transfer into the cytoplasm [1],penetration of the cell membrane from outside the cell and transfer into the cytoplasm of iPS cells [2],foreign substance transfer efficiency toward stem cells such as iPS cells [2],foreign substance transfer efficiency toward somatic cells such as fibroblasts [1]
(FAM)-MAKSIRSKHRRQMRMMKRE ({FAM}-MAKSIRSKHRRQMRMMKRE; not fully specified (C-terminus); printed as (FAM)-MAKSIRSKHRRQMRMMKRE) [Sample No. 2],transferred into the cytoplasm,,,
(FAM)-MQRKPTIRRKNLRLRRK ({FAM}-MQRKPTIRRKNLRLRRK; not fully specified (C-terminus); printed as (FAM)-MQRKPTIRRKNLRLRRK) [Sample No. 6],transferred into the cytoplasm,transferred into the cytoplasm of iPS cells,extremely high,extremely high
(FITC-Acp)-GRCRRLANFGPRKRRRRRR ({FITC-Acp}-GRCRRLANFGPRKRRRRRR; not fully specified (C-terminus); printed as (FITC-Acp)-GRCRRLANFGPRKRRRRRR; reading uncertain) [Sample No. 4],transferred into the cytoplasm,transferred into the cytoplasm of iPS cells,extremely high,extremely high
(FITC-Acp)-IMRRRGL ({FITC-Acp}-IMRRRGL; not fully specified (C-terminus); printed as (FITC-Acp)-IMRRRGL; reading uncertain) [Sample No. 7],almost no passage through the cell membrane,almost no passage through the cell membrane,,
(FITC-Acp)-KKLKKRNK ({FITC-Acp}-KKLKKRNK; not fully specified (C-terminus); printed as (FITC-Acp)-KKLKKRNK; reading uncertain) [Sample No. 8],almost no passage through the cell membrane,almost no passage through the cell membrane,,
(FITC-Acp)-MARRRRHRGPRRPRPP ({FITC-Acp}-MARRRRHRGPRRPRPP; reading uncertain; also: printed as (FITC-Acp)-MARRRRHRGPRRPRPP) [Sample No. 3],transferred into the cytoplasm,,,
(FITC-Acp)-RRRKRNRDARRRRRKQ ({FITC-Acp}-RRRKRNRDARRRRRKQ; reading uncertain; also: printed as (FITC-Acp)-RRRKRNRDARRRRRKQ) [Sample No. 5],transferred into the cytoplasm,,,
(FITC-Acp)-RSRKYTSWYVALKRTLKERCLQVVRSLVK ({FITC-Acp}-RSRKYTSWYVALKRTLKERCLQVVRSLVK; not fully specified (C-terminus); printed as (FITC-Acp)-RSRKYTSWYVALKRTLKERCLQVVRSLVK; reading uncertain) [Sample No. 14],transferred into the cytoplasm,transferred into the cytoplasm of iPS cells,,extremely high
